Measured values reported in PubChem BioAssay (NCI).
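Compound exposure: 48 hours, 5 concentrations, 96-well plates. Here, GI50 denotes the concentration required for 50% inhibition of growth. TGI denotes the concentration required for complete inhibition of growth.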

What was measured:
Experiment in all cases: inhibition of tumour cell growth, NCI panel, 48 h
K-562 leukemia = tested on: K-562 leukemia
HT29 colon = tested on: HT29 colon
EKVX NSCLC = tested on: EKVX NSCLC
SF-295 CNS = tested on: SF-295 CNS
NCI-H226 lung = tested on: NCI-H226 lung
SK-OV-3 ovarian = tested on: SK-OV-3 ovarian
UACC-257 melanoma = tested on: UACC-257 melanoma
NCI-H23 lung = tested on: NCI-H23 lung
SNB-75 CNS = tested on: SNB-75 CNS
SK-MEL-28 melanoma = tested on: SK-MEL-28 melanoma

| Structure (SMILES) | GI50 (K-562 leukemia) [µM] | TGI (K-562 leukemia) [µM] | GI50 (HT29 colon) [µM] | TGI (HT29 colon) [µM] | GI50 (EKVX NSCLC) [µM] | TGI (EKVX NSCLC) [µM] | GI50 (SF-295 CNS) [µM] | TGI (SF-295 CNS) [µM] | GI50 (NCI-H226 lung) [µM] | TGI (NCI-H226 lung) [µM] | GI50 (SK-OV-3 ovarian) [µM] | TGI (SK-OV-3 ovarian) [µM] | GI50 (UACC-257 melanoma) [µM] | TGI (UACC-257 melanoma) [µM] | GI50 (NCI-H23 lung) [µM] | TGI (NCI-H23 lung) [µM] | GI50 (SNB-75 CNS) [µM] | TGI (SNB-75 CNS) [µM] | GI50 (SK-MEL-28 melanoma) [µM] | TGI (SK-MEL-28 melanoma) [µM] |
| --- | --- | --- | --- | --- | --- | --- | --- | --- | --- | --- | --- | --- | --- | --- | --- | --- | --- | --- | --- | --- |
| COc1cc(/C=C2\C(=O)Nc3ccc(O)cc32)cc(OC)c1OC | 3.83 | > 100 | 10.3 | 25.3 | 18.6 | 59 | 26.4 | > 100 | 21.1 | 54.4 | 27.8 | 98.1 | 8.48 | 22.1 | 6.76 | 24.8 | 8.54 | 33.7 | 14.1 | 30.2 |
| CCOC(=O)/C(C#N)=c1/s/c(=C(\O)N/N=C/c2ccc(OC)cc2)c(=N)n1-c1ccccc1 |  | > 100 |  | > 100 |  |  |  | > 100 |  | > 100 |  | > 100 |  | > 100 |  | > 100 |  | 27.2 |  | > 100 |
| CS(=O)(=O)Sc1ccc(Cl)cc1 |  | 42.6 |  | 22.6 |  | 18.3 |  | 9.21 |  | 20.6 |  | 43.9 |  | 20.6 |  | 27.7 |  | 12.6 |  | 23.9 |
| O[C@@H]1CCCCN1Cc1cc2cc3c(cc2c2cc(OCc4ccccc4)ccc12)OCO3 | 1.45 | 4.14 | 1.03 | 2.45 | 2.01 | 3.97 | 1.59 | 3.03 |  |  | 1.64 | 3.39 | 1.86 | 3.66 |  |  | 1.66 | 3.08 | 1.55 | 2.94 |
| CCCCCCCCCCCCOC(=N)N1CCOCC1 |  | 7.47 |  | 4.11 |  | 26.4 |  | 31.7 |  | 37.2 |  | 34.1 |  | 23.9 |  | 27.4 |  | 29.9 |  | 25.3 |
| Nc1ccc(Oc2ccc(C3(c4ccc(Oc5ccc(N)c(O)c5)cc4)C4CC5CC(C4)CC3C5)cc2)cc1O |  | 5.56 |  | 4.4 |  | 6.16 |  | 14.9 |  | 3.62 |  | 7.1 |  | 5.91 |  |  |  |  |  |  |
| O=c1cc(O)c1=O |  | > 100 |  | > 100 |  | > 100 |  | > 100 |  | > 100 |  | > 100 |  | > 100 |  | > 100 |  | > 100 |  | > 100 |
| CC(C)OP(=O)(OC(C)C)C(=Nc1ccc(N=C(NNc2ccc([N+](=O)[O-])cc2)P(=O)(OC(C)C)OC(C)C)cc1)NNc1ccc([N+](=O)[O-])cc1 |  | > 100 |  |  |  | > 100 |  |  |  | > 100 |  |  |  | > 100 |  | > 100 |  | > 100 |  | > 100 |
